PubChem BioAssay AID330 (DTP/NCI, 2004)
“And” between values parts separate entries of the source, which are not always exact repeats. Identical values can stand only once. Toxic doses and inconclusive results are not listed.

Test system: P388 leukemia ip, CD2F1 mice, survival T/C
Assay: NCI In Vivo Anticancer Drug Screen. Data for tumor model P388 Leukemia (intraperitoneal) in CD2F1 (CDF1) mice
Conditions: endpoint: median survival time, higher = longer survival
Procedure, shortened: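 Mice carrying the transplanted tumor received test compound or vehicle. Survival was recorded in each group, and the value is the treated-group measurement divided by that of the vehicle-treated control group.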

[1] = dose: 100.0 mg/kg/injection, schedule: Q01DX001 (ip), vehicle: Klucel (hydroxypropylcellulose) (HPC)
[2] = dose: 200.0 mg/kg/injection, schedule: Q01DX001 (ip), vehicle: Klucel (hydroxypropylcellulose) (HPC)
[3] = dose: 60.0 mg/kg/injection, schedule: Q01DX005 (ip), vehicle: Klucel (hydroxypropylcellulose) (HPC)
[4] = dose: 120.0 mg/kg/injection, schedule: Q01DX005 (ip), vehicle: Klucel (hydroxypropylcellulose) (HPC)
[5] = dose: 240.0 mg/kg/injection, schedule: Q01DX005 (ip), vehicle: Klucel (hydroxypropylcellulose) (HPC)
[6] = dose: 50.0 mg/kg/injection, schedule: Q01DX005 (ip), vehicle: Klucel (hydroxypropylcellulose) (HPC)
[7] = dose: 100.0 mg/kg/injection, schedule: Q01DX005 (ip), vehicle: Klucel (hydroxypropylcellulose) (HPC)
[8] = dose: 200.0 mg/kg/injection, schedule: Q01DX005 (ip), vehicle: Klucel (hydroxypropylcellulose) (HPC)
[9] = dose: 60.0 mg/kg/injection, schedule: Q01DX005 (ip), vehicle: saline with Tween-80
[10] = dose: 120.0 mg/kg/injection, schedule: Q01DX005 (ip), vehicle: saline with Tween-80
[11] = dose: 240.0 mg/kg/injection, schedule: Q01DX005 (ip), vehicle: saline with Tween-80
[12] = dose: 50.0 mg/kg/injection, schedule: Q01DX005 (ip), vehicle: saline with Tween-80
[13] = dose: 100.0 mg/kg/injection, schedule: Q01DX005 (ip), vehicle: saline with Tween-80
[14] = dose: 200.0 mg/kg/injection, schedule: Q01DX005 (ip), vehicle: saline with Tween-80
[15] = dose: 50.0 mg/kg/injection, schedule: Q01DX009 (ip), vehicle: saline with Tween-80
[16] = dose: 100.0 mg/kg/injection, schedule: Q01DX009 (ip), vehicle: saline with Tween-80
[17] = dose: 200.0 mg/kg/injection, schedule: Q01DX009 (ip), vehicle: saline with Tween-80

For C1=NN2C3c4ccccc4C(C1)C32 (configuration not stated), the T/C [1] was 109 % of control and the T/C [2] was 113 % of control.

CC(=O)NC1C([Se][As](C)C)OC(COC(C)=O)C(OC(C)=O)C1OC(C)=O (configuration not stated) was tested, and the T/C (dose: 6.25 mg/kg/injection, schedule: Q01DX009 (ip), vehicle: saline with Tween-80) was 122 % of control and the T/C (dose: 12.5 mg/kg/injection, schedule: Q01DX009 (ip), vehicle: saline with Tween-80) was 116 % of control.

With O=c1[nH]c2ccccc2nc1/C=C(\O)c1ccc([N+](=O)[O-])cc1 the T/C (dose: 7.5 mg/kg/injection, schedule: Q01DX005 (ip), vehicle: Klucel + Tween-80) was 100 % of control, the T/C (dose: 15.0 mg/kg/injection, schedule: Q01DX005 (ip), vehicle: Klucel + Tween-80) was 89 % of control and the T/C (dose: 30.0 mg/kg/injection, schedule: Q01DX005 (ip), vehicle: Klucel + Tween-80) was 86 % of control.

With O=C1C(Cc2ccccc2)C(=O)N2c3ccccc3C=CC2N1c1ccccc1 (configuration not stated) the T/C [3] was 98 % of control, the T/C [4] was 97 % of control and the T/C [5] was 89 % of control.

In the case of Nc1n[nH]c2c3c([nH]c(=O)c12)-c1ccccc1SC3, the T/C (dose: 100.0 mg/kg/injection, schedule: Q04DX002 (ip), vehicle: Klucel (hydroxypropylcellulose) (HPC)) is reported as 102 % of control, the T/C (dose: 200.0 mg/kg/injection, schedule: Q04DX002 (ip), vehicle: Klucel (hydroxypropylcellulose) (HPC)) is reported as 88 % of control and the T/C (dose: 400.0 mg/kg/injection, schedule: Q04DX002 (ip), vehicle: Klucel (hydroxypropylcellulose) (HPC)) is reported as 86 % of control.

For CN(C)c1ccc2c(SCC(=O)Nc3ccc(NS(C)(=O)=O)cc3)c3ccc(N(C)C)cc3nc2c1, the T/C [6] was 115 % of control, the T/C [7] was 117 % of control and the T/C [8] was 114 % of control.

For COc1cc2c(cc1OC)C1CC(=O)C(CCCCCCC3CN4CCc5cc(OC)c(OC)cc5C4CC3=O)CN1CC2 (configuration not stated), the T/C (dose: 50.0 mg/kg/injection, schedule: Q01DX009 (ip), vehicle: Klucel (hydroxypropylcellulose) (HPC)) was 91 % of control, the T/C (dose: 100.0 mg/kg/injection, schedule: Q01DX009 (ip), vehicle: Klucel (hydroxypropylcellulose) (HPC)) was 92 % of control and the T/C (dose: 200.0 mg/kg/injection, schedule: Q01DX009 (ip), vehicle: Klucel (hydroxypropylcellulose) (HPC)) was 99 % of control.

For NNC(=O)COc1ccc(Br)cc1Br, the T/C [9] was 95 % of control and the T/C [10] was 97 % of control.

For O=[N+]([O-])c1ccc2nc(N/N=C/COC/C=N/Nc3nc4ccc([N+](=O)[O-])cc4s3)sc2c1, the T/C (dose: 100.0 mg/kg/injection, schedule: Q01DX001 (ip), vehicle: saline) was 94 % of control, the T/C (dose: 200.0 mg/kg/injection, schedule: Q01DX001 (ip), vehicle: saline) was 104 % of control and the T/C (dose: 400.0 mg/kg/injection, schedule: Q01DX001 (ip), vehicle: saline) was 96 % of control.

In the case of CC1CN(Cc2ccccc2)CCC1N1CCCCC1 (configuration not stated), the T/C (dose: 50.0 mg/kg/injection, schedule: Q01DX005 (ip), vehicle: saline) is reported as 99 % of control and the T/C (dose: 100.0 mg/kg/injection, schedule: Q01DX005 (ip), vehicle: saline) is reported as 100 % of control.

For COc1ccc(C(=O)CCc2cccc(NC(=O)CCl)c2)cc1, the T/C [9] was 91 % of control, the T/C [10] was 100 % of control and the T/C [11] was 102 % of control.

For NNC(=O)C(=O)n1ccnc1, the T/C [12] was 95 % of control, the T/C [13] was 102 % of control and the T/C [14] was 101 % of control.

With [CH3][Sn]([CH3])([O]c1cccccc1=O)[O]c1cccccc1=O the T/C (dose: 25.0 mg/kg/injection, schedule: Q01DX001 (ip), vehicle: Klucel (hydroxypropylcellulose) (HPC)) was 99 % of control, the T/C (dose: 50.0 mg/kg/injection, schedule: Q01DX001 (ip), vehicle: Klucel (hydroxypropylcellulose) (HPC)) was 99 % of control and the T/C [1] was 100 % of control.

In the case of N#CC(c1c(Cl)cccc1N1CCCCC1)N1CCCCC1 (configuration not stated), the T/C [12] is reported as 108 % of control, the T/C [13] is reported as 104 % of control and the T/C [14] is reported as 100 % of control.

With CCOc1cccc2c1C(=O)c1cccc(OCC)c1C2(O)C#Cc1ccccc1 (configuration not stated) the T/C (dose: 100.0 mg/kg/injection, schedule: Q04DX002 (ip), vehicle: saline with Tween-80) was 90 % of control, the T/C (dose: 200.0 mg/kg/injection, schedule: Q04DX002 (ip), vehicle: saline with Tween-80) was 87 % of control and the T/C (dose: 400.0 mg/kg/injection, schedule: Q04DX002 (ip), vehicle: saline with Tween-80) was 86 % of control.

With C[P+](CCOC(=O)NC(Cc1ccccc1)C(=O)O)(c1ccccc1)c1ccccc1 (configuration not stated) the T/C [15] was 94 % of control and the T/C [16] was 103 % of control.

For CCOC1=C(C)C(N(CC)CC)=NS(=O)(=O)c2ccccc21, the T/C [1] was 99 % of control, the T/C [2] was 103 % of control and the T/C (dose: 400.0 mg/kg/injection, schedule: Q01DX001 (ip), vehicle: Klucel (hydroxypropylcellulose) (HPC)) was 98 % of control.

C1=CCC2CSCC2C1 (configuration not stated) was tested, and the T/C (dose: 37.5 mg/kg/injection, schedule: Q01DX001 (ip), vehicle: saline sonified) was 100 % of control and the T/C (dose: 75.0 mg/kg/injection, schedule: Q01DX001 (ip), vehicle: saline sonified) was 105 % of control.

For CC1CN(Cc2cc(C(C)(C)c3cc(Cl)c(O)c(CN4CC(C)OC(C)C4)c3)cc(Cl)c2O)CC(C)O1 (configuration not stated), the T/C (dose: 12.5 mg/kg/injection, schedule: Q01DX005 (ip), vehicle: saline with Tween-80) was 101 % of control, the T/C (dose: 25.0 mg/kg/injection, schedule: Q01DX005 (ip), vehicle: saline with Tween-80) was 101 % of control and the T/C [12] was 87 % of control and 91 % of control.

For c1coc(-c2cc(-c3cc(-c4ccco4)on3)no2)c1, the T/C [3] was 105 % of control, the T/C [4] was 100 % of control and the T/C [5] was 107 % of control.

CCCCN(CCCC)CCCOC(=O)c1ccc2oc3ccc(C(=O)OCCCN(CCCC)CCCC)cc3c2c1 was tested, and the T/C [15] was 96 % of control and the T/C [16] was 103 % of control.

With CC(=O)ON=C(C1CC1)C1CC1 the T/C (dose: 37.5 mg/kg/injection, schedule: Q01DX009 (ip), vehicle: other) was 100 % of control, the T/C (dose: 75.0 mg/kg/injection, schedule: Q01DX009 (ip), vehicle: other) was 106 % of control and the T/C (dose: 150.0 mg/kg/injection, schedule: Q01DX009 (ip), vehicle: other) was 100 % of control. For the same molecule, the T/C (dose: 300.0 mg/kg/injection, schedule: Q01DX009 (ip), vehicle: other) was 110 % of control.

O=C1O/C(=C\c2ccccc2)c2c(Br)c(Br)c(Br)c(Br)c21 was tested, and the T/C [15] was 94 % of control, the T/C [16] was 93 % of control and the T/C [17] was 99 % of control. The T/C (dose: 400.0 mg/kg/injection, schedule: Q01DX009 (ip), vehicle: saline with Tween-80) was 99 % of control.

CC(C)=CCC/C(C)=C/CC/C(C)=C/CS(=O)(=O)c1ccc(C)cc1 was tested, and the T/C [15] was 105 % of control, the T/C [16] was 105 % of control and the T/C [17] was 109 % of control.

In the case of CNC1C(O)C2Oc3c(cc(O)c4c3C(=O)c3cc5c(c(O)c3C4=O)C(OC)CC(C)(O)C5)C(C)(O2)C1O (configuration not stated), the T/C (dose: 0.62 mg/kg/injection, schedule: Q01DX009 (ip), vehicle: saline) is reported as 151 % of control, the T/C (dose: 1.25 mg/kg/injection, schedule: Q01DX009 (ip), vehicle: saline) is reported as 173 % of control and the T/C (dose: 2.5 mg/kg/injection, schedule: Q01DX009 (ip), vehicle: saline) is reported as 115 % of control.

With c1ccc2c(c1)oc1cc3c(cc12)nnc1cccn13 the T/C (dose: 25.0 mg/kg/injection, schedule: Q01DX005 (ip), vehicle: Klucel (hydroxypropylcellulose) (HPC)) was 100 % of control, the T/C [6] was 96 % of control and the T/C [7] was 92 % of control. For the same molecule, the T/C [8] was 86 % of control.

CCOC(=O)C1=C(C)Oc2cc3c(cc2C1c1ccc(OC)cc1)OCO3 (configuration not stated) was tested, and the T/C [9] was 105 % of control, the T/C [10] was 105 % of control and the T/C [11] was 94 % of control.
